Assay results published in PubChem BioAssay AID1963985 (Molecular Pharmacology Branch, DTP, NCI, 2024).

Tested on: 252836-082-R-J2-PDC tumor spheroids, viability
Experiment: Anticancer human tumor 252836-082-R-J2-PDC patient-derived head and neck squamous cell carcinoma cell line growth inhibition [PI3K]
Settings: spheroids with HUVEC and MSC; for IC50: curve of first compound; for viability, T/C: stronger effect = lower value
Summary of the method: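 Tumor cells were combined with HUVEC and MSCs into spheroids, then dosed with PI3K-inhibitor combinations over half-log ranges capped near clinical Cmax or 10 microM.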

[1] = second compound 0.00316 µM, first compound 0.0316 µM
[2] = second compound 0.00316 µM, first compound 0.1 µM
[3] = second compound 0.01 µM, first compound 0.0316 µM
[4] = second compound 0.01 µM, first compound 0.1 µM
[5] = second compound 0.0316 µM, first compound 0.0316 µM
[6] = second compound 0.0316 µM, first compound 0.1 µM
[7] = second compound 0.1 µM, first compound 0.0316 µM
[8] = second compound 0.1 µM, first compound 0.1 µM
[9] = second compound 0.316 µM, first compound 0.0316 µM
[10] = second compound 0.316 µM, first compound 0.1 µM
[11] = second compound 1 µM, first compound 0.0316 µM
[12] = second compound 1 µM, first compound 0.1 µM
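Also: spheroids exposed to agents for seven days before readout.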
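For viability, T/C in this document: percent of vehicle DMSO control viability so 100% = untreated growth.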

CC(=O)c1c(C)c2cnc(Nc3ccc(N4CCNCC4)cn3)nc2n(C2CCCC2)c1=O + COc1c(OCCCN2CCOCC2)ccc2c3n(c(=NC(=O)c4cnc(N)nc4)nc12)CCN3
IC50 (second compound 0.00316 µM): > 0.1 µM
IC50 (second compound 0.01 µM): > 0.1 µM
IC50 (second compound 0.0316 µM): > 0.1 µM
IC50 (second compound 0.1 µM): < 0.000316 µM
IC50 (second compound 0.316 µM): < 0.000316 µM
IC50 (second compound 1 µM): < 0.000316 µM
viability, T/C (second compound 0.00316 µM, first compound 0.000316 µM): 95%
viability, T/C (second compound 0.00316 µM, first compound 0.001 µM): 93.1%
viability, T/C (second compound 0.00316 µM, first compound 0.00316 µM): 85.6%
viability, T/C (second compound 0.00316 µM, first compound 0.01 µM): 96.3%
viability, T/C [1]: 87.8%
viability, T/C [2]: 99%
viability, T/C (second compound 0.01 µM, first compound 0.000316 µM): 84.7%
viability, T/C (second compound 0.01 µM, first compound 0.001 µM): 81.4%
viability, T/C (second compound 0.01 µM, first compound 0.00316 µM): 78.5%
viability, T/C (second compound 0.01 µM, first compound 0.01 µM): 84.3%
viability, T/C [3]: 81.1%
viability, T/C [4]: 83.7%
viability, T/C (second compound 0.0316 µM, first compound 0.000316 µM): 69.5%
viability, T/C (second compound 0.0316 µM, first compound 0.001 µM): 60.9%
viability, T/C (second compound 0.0316 µM, first compound 0.00316 µM): 66.9%
viability, T/C (second compound 0.0316 µM, first compound 0.01 µM): 56.5%
viability, T/C [5]: 64%
viability, T/C [6]: 62.6%
viability, T/C (second compound 0.1 µM, first compound 0.000316 µM): 37.1%
viability, T/C (second compound 0.1 µM, first compound 0.001 µM): 41.2%
viability, T/C (second compound 0.1 µM, first compound 0.00316 µM): 37.8%
viability, T/C (second compound 0.1 µM, first compound 0.01 µM): 45.5%
viability, T/C [7]: 41.7%
viability, T/C [8]: 37.5%
viability, T/C (second compound 0.316 µM, first compound 0.000316 µM): 18.2%
viability, T/C (second compound 0.316 µM, first compound 0.001 µM): 21.1%
viability, T/C (second compound 0.316 µM, first compound 0.00316 µM): 20.6%
viability, T/C (second compound 0.316 µM, first compound 0.01 µM): 18.7%
viability, T/C [9]: 21.8%
viability, T/C [10]: 16.6%
viability, T/C (second compound 1 µM, first compound 0.000316 µM): 4.69%
viability, T/C (second compound 1 µM, first compound 0.001 µM): 5.36%
viability, T/C (second compound 1 µM, first compound 0.00316 µM): 5.54%
viability, T/C (second compound 1 µM, first compound 0.01 µM): 5.58%
viability, T/C [11]: 6.27%
viability, T/C [12]: 4.95%

CCCS(=O)(=O)Nc1ccc(F)c(C(=O)c2c[nH]c3ncc(-c4ccc(Cl)cc4)cc23)c1F + COc1c(OCCCN2CCOCC2)ccc2c3n(c(=NC(=O)c4cnc(N)nc4)nc12)CCN3
IC50 (second compound 0.00316 µM): 4.4 µM
IC50 (second compound 0.01 µM): 4.97 µM
IC50 (second compound 0.0316 µM): 2.96 µM
IC50 (second compound 0.1 µM): < 0.0316 µM
IC50 (second compound 0.316 µM): < 0.0316 µM
IC50 (second compound 1 µM): < 0.0316 µM
viability, T/C [1]: 88.2%
viability, T/C [2]: 92.8%
viability, T/C (second compound 0.00316 µM, first compound 0.316 µM): 80.6%
viability, T/C (second compound 0.00316 µM, first compound 1 µM): 90.1%
viability, T/C (second compound 0.00316 µM, first compound 3.16 µM): 67.2%
viability, T/C (second compound 0.00316 µM, first compound 10 µM): 7.48%
viability, T/C [3]: 71.8%
viability, T/C [4]: 73.6%
viability, T/C (second compound 0.01 µM, first compound 0.316 µM): 72.9%
viability, T/C (second compound 0.01 µM, first compound 1 µM): 87.5%
viability, T/C (second compound 0.01 µM, first compound 3.16 µM): 79.7%
viability, T/C (second compound 0.01 µM, first compound 10 µM): 8.12%
viability, T/C [5]: 64.8%
viability, T/C [6]: 57.6%
viability, T/C (second compound 0.0316 µM, first compound 0.316 µM): 67.9%
viability, T/C (second compound 0.0316 µM, first compound 1 µM): 59%
viability, T/C (second compound 0.0316 µM, first compound 3.16 µM): 49.8%
viability, T/C (second compound 0.0316 µM, first compound 10 µM): 9.78%
viability, T/C [7]: 32.3%
viability, T/C [8]: 39.8%
viability, T/C (second compound 0.1 µM, first compound 0.316 µM): 43.3%
viability, T/C (second compound 0.1 µM, first compound 1 µM): 43.3%
viability, T/C (second compound 0.1 µM, first compound 3.16 µM): 31.7%
viability, T/C (second compound 0.1 µM, first compound 10 µM): 4.74%
viability, T/C [9]: 16.1%
viability, T/C [10]: 15.8%
viability, T/C (second compound 0.316 µM, first compound 0.316 µM): 16.7%
viability, T/C (second compound 0.316 µM, first compound 1 µM): 19.4%
viability, T/C (second compound 0.316 µM, first compound 3.16 µM): 18.1%
viability, T/C (second compound 0.316 µM, first compound 10 µM): 1.83%
viability, T/C [11]: 5.69%
viability, T/C [12]: 5.15%
viability, T/C (second compound 1 µM, first compound 0.316 µM): 7.11%
viability, T/C (second compound 1 µM, first compound 1 µM): 7.02%
viability, T/C (second compound 1 µM, first compound 3.16 µM): 5.99%
viability, T/C (second compound 1 µM, first compound 10 µM): 1.31%
